Like-named read-outs stand apart in the source and are kept apart here.
Experiments:
[1] = tested on: SW48 human colorectal cancer cells; assay: Calculated free drug potency in SW48 cell assay, corrected with media free fraction (Example C); assay type: cell-based; conditions: Homo sapiens, SW48, SW48 pCC50 corrected with measured free fraction in cell assay media
In short: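 Free drug potency derives from correcting SW48 assay concentrations with the unbound fraction in medium. That fraction came from RED against pH 7.4 PBS, 1 μM nominal compound, 4 h at 37 °C, quantified by LC-MS/MS peak area ratios at T=240 versus T=0 min.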

[2] = tested on: SW48 human colorectal cancer cells (MSI-H cancer cells); assay: SW48 cell viability, CellTiter-Glo, 120 hours (Example B); conditions: Homo sapiens
[3] = molecular target: T1, recombinant full-length WRN protein (1-1432) (Homo sapiens, UniProt Q14191); assay: WRN unwinding activity, fluorogenic 384-well assay (Example A); assay type: biochemical; conditions: WRN unwinding activity, 4 hr; Table 2; read-out: 4 hr UNW pIC50 (converted)
T1 construct: recombinant full-length WRN protein (1-1432)
T1 sequence (Q14191 whole entry): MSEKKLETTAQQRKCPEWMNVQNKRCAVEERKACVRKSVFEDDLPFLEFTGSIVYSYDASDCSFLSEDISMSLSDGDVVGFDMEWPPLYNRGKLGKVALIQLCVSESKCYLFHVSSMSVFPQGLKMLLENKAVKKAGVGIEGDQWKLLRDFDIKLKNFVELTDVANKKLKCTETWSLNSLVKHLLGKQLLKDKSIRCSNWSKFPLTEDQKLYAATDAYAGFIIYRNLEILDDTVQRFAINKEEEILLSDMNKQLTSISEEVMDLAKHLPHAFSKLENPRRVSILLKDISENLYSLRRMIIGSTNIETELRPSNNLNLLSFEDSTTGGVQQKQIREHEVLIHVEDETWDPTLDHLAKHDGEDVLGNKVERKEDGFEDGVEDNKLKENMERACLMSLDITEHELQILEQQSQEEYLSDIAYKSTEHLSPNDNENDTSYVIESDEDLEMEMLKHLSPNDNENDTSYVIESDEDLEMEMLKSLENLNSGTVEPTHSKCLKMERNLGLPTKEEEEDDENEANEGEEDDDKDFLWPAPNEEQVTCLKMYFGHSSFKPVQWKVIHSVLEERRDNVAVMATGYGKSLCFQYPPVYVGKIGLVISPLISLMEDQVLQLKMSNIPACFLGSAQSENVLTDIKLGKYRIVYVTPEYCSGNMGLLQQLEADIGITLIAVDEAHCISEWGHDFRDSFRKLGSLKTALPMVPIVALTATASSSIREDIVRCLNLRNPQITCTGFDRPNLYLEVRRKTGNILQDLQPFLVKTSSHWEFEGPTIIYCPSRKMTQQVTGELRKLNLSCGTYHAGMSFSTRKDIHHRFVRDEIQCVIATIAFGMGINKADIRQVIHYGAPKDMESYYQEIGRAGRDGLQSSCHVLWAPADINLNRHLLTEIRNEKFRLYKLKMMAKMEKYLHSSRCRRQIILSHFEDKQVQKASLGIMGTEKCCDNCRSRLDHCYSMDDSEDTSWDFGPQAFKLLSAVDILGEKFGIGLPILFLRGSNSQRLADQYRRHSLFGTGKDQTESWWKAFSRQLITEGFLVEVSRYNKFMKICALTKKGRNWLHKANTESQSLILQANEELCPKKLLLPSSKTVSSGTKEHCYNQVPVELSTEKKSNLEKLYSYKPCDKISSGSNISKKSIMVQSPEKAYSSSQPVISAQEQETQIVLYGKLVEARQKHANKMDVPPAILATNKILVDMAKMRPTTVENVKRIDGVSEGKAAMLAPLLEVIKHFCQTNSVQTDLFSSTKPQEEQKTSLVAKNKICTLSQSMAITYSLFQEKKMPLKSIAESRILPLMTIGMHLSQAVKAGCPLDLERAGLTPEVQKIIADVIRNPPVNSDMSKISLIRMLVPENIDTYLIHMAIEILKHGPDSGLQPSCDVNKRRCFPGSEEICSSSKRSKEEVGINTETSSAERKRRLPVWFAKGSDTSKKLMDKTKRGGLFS
In short: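 Read-out is end-point unwinding of a fluorophore/quencher duplex (ex 525, em 598 nm) after 60 min with 200 μM ATP and 12 nM DNA (2× stocks), EDTA stop. Compound first sat 4 h with 200 pM WRN (2× stock) in pH 8.0 Tris buffer; four-parameter fit gives pIC50.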

[4] = Cell culture media unbound percentage and stability by rapid equilibrium dialysis (Example C); assay type: in vitro ADME; conditions: bovine, cell assay medium (RPMI-1640 with 10% fetal bovine serum), pH 7.4, rapid equilibrium dialysis, 4 hours at 37° C., read-out: Cell Culture Media Binding (% unbound)
In short: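 Percent unbound in cell assay medium came from the LC-MS/MS receiver:donor peak area ratio, with stability taken as the 240 min over 0 min ratio. Set-up: 1 μM nominal compound in medium dialysed against pH 7.4 PBS (100 mM phosphate, 150 mM NaCl), 4 h, 37° C, shaken, in triplicate.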

[5] = SW48, 120 h, read-out: SW48 pCC50, SW48 cell viability, 120 hours incubation (converted), Table 2
[6] = SW48, read-out: SW48 pCC50, measured potency from Example B, as repeated in Table 3 (converted)

Row | Compound | CC50 [1] [nM] | CC50 [2, 5] [nM] | CC50 [2, 6] [nM] | IC50 [3] [nM] | fraction unbound at 4 h, 1 µM [4]
1 | CN(c1ccc([C@H]2CCC[C@@H](C(=O)Nc3ccc(C(F)(F)F)cc3F)[C@@H]2C(=O)O)cc1)S(=O)(=O)c1ccc2ccn(C)c2c1 [Example 110, (1R,2S,6R)-2-(4-((N,1-dimethyl-1H-indole)-6-sulfonamido)phenyl)-6-((2-fluoro-4-(trifluoromethyl)phenyl)carbamoyl)cyclohexane-1-carboxylic acid] | 10.7 | 1260 | 1260 | 3.98 | 0.0085
2 | Cc1nc2cc(S(=O)(=O)N(C)c3ccc([C@H]4CCC[C@@H](C(=O)Nc5ccc(C(C)(C)O)cc5F)[C@@H]4C(=O)O)cc3)ccc2n1C [Example 181, (1R,2R,6S)-2-((2-fluoro-4-(2-hydroxypropan-2-yl)phenyl)carbamoyl)-6-(4-((N,1,2-trimethyl-1H-benzo[d]imidazole)-5-sulfonamido)phenyl)cyclohexane-1-carboxylic acid] | 603 | 2000 | 2000 | 1.58 | 0.303
3 | Cc1nc2c(F)c(S(=O)(=O)N(C)c3ccc([C@H]4CCC[C@@H](C(=O)Nc5ccc(C(F)(F)F)cc5F)[C@@H]4C(=O)O)cc3)ccc2n1C [Example 128, (1R,2R,6S)-2-((2-fluoro-4-(trifluoromethyl)phenyl)carbamoyl)-6-(4-((4-fluoro-N,1,2-trimethyl-1H-benzo[d]imidazole)-5-sulfonamido)phenyl)cyclohexane-1-carboxylic acid] | 45.7 | 1000 | 1000 | 3.98 | 0.0452
4 | CCO[C@@H]1C[C@H](c2ccc(N(C)S(=O)(=O)c3ccc4c(c3)nc(C)n4C)cc2)[C@@H](C(=O)O)[C@H](C(=O)Nc2ccc(C(F)(F)F)cn2)C1 (single isomer, unassigned) [Example 199] | 79.4 | 501 | 501 | 2.51 | 0.16
5 | CCO[C@H]1C[C@@H](COc2ccc(C(F)(F)F)cc2)[C@H](C(=O)O)[C@@H](c2ccc(N(C)S(=O)(=O)c3ccc4c(c3)nc(C)n4C)cc2)C1 (single isomer, unassigned) [Example 221] | 81.3 | 2000 | 2000 | 3.98 | 0.0411
6 | CN(c1ccc([C@H]2CCC[C@@H](C(=O)Nc3ccc(C(F)(F)F)cc3F)[C@@H]2C(=O)O)cc1)S(=O)(=O)c1cccc([C@@H]2CCCNC2)c1 [Example 262, (1R,2R,6S)-2-((2-fluoro-4-(trifluoromethyl)phenyl)carbamoyl)-6-(4-((N-methyl-3-((S)-piperidin-3-yl)phenyl)sulfonamido)phenyl)cyclohexane-1-carboxylic acid] | 240 | 1000 | 1000 | 1.58 | 0.241
7 | Cc1nc2cc(S(=O)(=O)N(C)c3ccc([C@H]4CCC[C@@H](C(=O)Nc5ccc(C(F)(F)F)cc5F)[C@@H]4C(=O)O)cc3)cc([C@H]3CCCN(C)C3)c2n1C (relative stereo) [Example 271, (1R,2R,6S)-2-((2-fluoro-4-(trifluoromethyl)phenyl)carbamoyl)-6-(4-((N,1,2-trimethyl-7-((R*)-1-methylpiperidin-3-yl)-1H-benzo[d]imidazole)-5-sulfonamido)phenyl)cyclohexane-1-carboxylic acid] | 17.8 | 79.4 | 79.4 | 1.58 | 0.224
8 | Cc1nc2cc(S(=O)(=O)N(C)c3ccc([C@H]4CCC[C@@H](C(=O)Nc5ccc(C(F)(F)F)cc5F)[C@@H]4C(=O)O)cc3)cc(Cl)c2n1C [Example 129, (1R,2S,6R)-2-(4-((7-chloro-N,1,2-trimethyl-1H-benzo[d]imidazole)-5-sulfonamido)phenyl)-6-((2-fluoro-4-(trifluoromethyl)phenyl)carbamoyl)cyclohexane-1-carboxylic acid] | 9.12 | 631 | 631 | 20 | 0.0143
9 | CCO[C@@H]1C[C@H](c2ccc(NS(=O)(=O)c3ccc4c(c3)nc(C)n4C)cc2)[C@@H](C(=O)O)[C@H](C(=O)Nc2ccc(C(F)(F)F)cc2F)C1 [Example 288, (1R,2S,4R,6R)-2-(4-((1,2-dimethyl-1H-benzo[d]imidazole)-5-sulfonamido)phenyl)-4-ethoxy-6-((2-fluoro-4-(trifluoromethyl)phenyl)carbamoyl)cyclohexane-1-carboxylic acid] | 21.4 | 1000 | 1000 | 5.01 | 0.0214
10 | CN(C)CCc1nc2cc(S(=O)(=O)N(C)c3ccc([C@H]4CCC[C@@H](COc5ccc(C(F)(F)F)cc5)[C@@H]4C(=O)O)cc3)ccc2n1C [Example 275] | 41.7 | 5010 | 5010 | 2 | 0.0083
11 | Cc1nc2cc(S(=O)(=O)N(C)c3ccc([C@H]4C[C@@H](N5CCC[C@H](F)C5)C[C@@H](C(=O)Nc5ccc(C(F)(F)F)cc5F)[C@@H]4C(=O)O)cc3)ccc2n1C (stereo in doubt) [Example 350, rel-(1R*,2R*,4R*,6S*)-2-((2-fluoro-4-(trifluoromethyl)phenyl)carbamoyl)-4-((S)-3-fluoropiperidin-1-yl)-6-(4-((, 1,2-trimethyl-1H-benzo[d]imidazole)-5-sulfonamido)phenyl)cyclohexane-1-carboxylic acid] | 13.8 | 63.1 | 63.1 | 1.58 | 0.218
12 | Cc1nc2cc(S(=O)(=O)N(C)c3ccc([C@@H]4CCC[C@H](C(=O)Nc5c(F)cc(C(C)C)cc5F)[C@H]4C(=O)O)cc3)ccc2n1C (single isomer, unassigned) [Example 171] | 50.1 | 794 | 794 | 3.16 | 0.0634
13 | Cc1nc2cc(S(=O)(=O)N(C)c3ccc([C@H]4C[C@@H](N5CC[C@H](F)C5)C[C@@H](C(=O)Nc5ccc(C(F)(F)F)cc5F)[C@@H]4C(=O)O)cc3)ccc2n1C (stereo in doubt) [Example 377, rel-(1R*,2R*,4R*,6S*)-2-((2-fluoro-4-(trifluoromethyl)phenyl)carbamoyl)-4-((S)-3-fluoropyrrolidin-1-yl)-6-(4-((N,1,2-trimethyl-1H-benzo[d]imidazole)-5-sulfonamido)phenyl)cyclohexane-1-carboxylic acid] | 8.91 | 126 | 126 | 5.01 | 0.071
14 | COCCO[C@@H]1C[C@H](c2ccc(N(C)S(=O)(=O)c3ccc4c(c3)nc(C)n4C)cc2)[C@@H](C(=O)O)[C@H](C(=O)Nc2ccc(C(F)(F)F)cc2F)C1 (stereo in doubt) [Example 316, rel-(1R,2R,4R,6S)-2-((2-fluoro-4-(trifluoromethyl)phenyl)carbamoyl)-4-(2-methoxyethoxy)-6-(4-((N,1,2-trimethyl-1H-benzo[d]imidazole)-5-sulfonamido)phenyl)cyclohexane-1-carboxylic acid] | 30.2 | 158 | 158 | 1.58 | 0.19
15 | Cc1nc2cc(S(=O)(=O)N(C)c3ccc([C@H]4CCC[C@@H](C(=O)Nc5ccc(C(F)(F)F)cc5F)[C@@H]4C(=O)O)cc3Cl)ccc2n1C [Example 296] | 155 | 1580 | 1580 | 1.58 | 0.0979
16 | Cc1nc2cc(S(=O)(=O)N(C)c3ccc([C@H]4C[C@@H](OCC(F)F)C[C@@H](C(=O)Nc5ccc(C(F)(F)F)cc5F)[C@@H]4C(=O)O)cc3)ccc2n1C (relative stereo) [Example 159, rel-(1R,2R,4R,6S)-4-(2,2-difluoroethoxy)-2-((2-fluoro-4-(trifluoromethyl)phenyl)carbamoyl)-6-(4-((N,1,2-trimethyl-1H-benzo[d]imidazole)-5-sulfonamido)phenyl)cyclohexane-1-carboxylic acid] | 20 | 200 | 200 | 2.51 | 0.0991
17 | Cc1nc2cc(S(=O)(=O)N(C)c3ccc([C@H]4C[C@@H](OCC5CCC5)C[C@@H](C(=O)Nc5ccc(C(F)(F)F)cc5F)[C@@H]4C(=O)O)cc3)ccc2n1C (stereo in doubt) [Example 154, rel-(1R,2R,4R,6S)-4-(cyclobutylmethoxy)-2-((2-fluoro-4-(trifluoromethyl)phenyl)carbamoyl)-6-(4-((N,1,2-trimethyl-1H-benzo[d]imidazole)-5-sulfonamido)phenyl)cyclohexane-1-carboxylic acid] | 5.01 | 398 | 398 | 3.98 | 0.0127
